How the values were obtained:
HIV-1 strain LAI = test: Cellular anti-HIV assay, MT4 cells, MTT readout, wild type HIV-1 strain LAI; assay type: cell-based; conditions: for WT (pIC50 against wild type HIV-LAI strain): Table 4
Experimental: The compounds of the present invention were examined for anti-viral activity in a cellular assay. […] The cellular assay was performed according to the following procedure.

mutant A = assay type: cell-based; conditions: FR=IC50(mutant strain)/IC50(HIV-1 strain LAI)
Experimental: (§1) HIV- or mock-infected MT4 cells were incubated for five days in the presence of various concentrations of the inhibitor. […] Cell viability is measured by measuring the concentration of MTT, a yellow, water soluble tetrazolium dye that is converted to a purple, water insoluble formazan in the mitochondria of living cells only. Upon solubilization of the resulting formazan crystals with isopropanol, the absorbance of the solution is monitored at 540 nm. The values correlate directly to the number of living cells remaining in the culture at the completion of the five day incubation. The inhibitory activity of the compound was monitored on the virus-infected cells and was expressed as IC50 and IC90. These values represent the amount of the compound required to protect 50% and 90%, respectively, of the cells from the cytopathogenic effect of the virus. […] The selectivity index (SI) (ratio CC50/IC50) is an indication of the selectivity of the anti-HIV activity of the inhibitor. Wherever results are reported as e.g. pIC50 or pCC50 values, the result is expressed as the negative logarithm of the result expressed as IC50 or CC50 respectively.
(§2) Because of the increasing emergence of drug resistant HIV strains, the present compounds were tested for their potency against clinically isolated HIV strains harboring several mutations. […] The viral strains R13025, R13027, R13028, R13029, R13034, R13080, T13127 and R13363 contained mutations as indicated below in Table 3.
(§3) As a measure of the broad spectrum activity of the present compounds, the fold resistance (FR), defined as FR=IC50(mutant strain)/IC50(HIV-1 strain LAI), was determined.

mutant E = assay type: cell-based; conditions: FR=IC50(mutant strain)/IC50(HIV-1 strain LAI)
Experimental: as §1, §2, §3

mock-infected MT4 cells = test: in vitro
Experimental: as §1, §3

mutant H = test: Antiviral spectrum, fold resistance towards mutant H; assay type: cell-based; conditions: FR=IC50(mutant strain)/IC50(HIV-1 strain LAI)
Experimental: Because of the increasing emergence of drug resistant HIV strains, the present compounds were tested for their potency against clinically isolated HIV strains harboring several mutations. These mutations are associated with resistance to protease inhibitors and result in viruses that show various degrees of phenotypic cross-resistance to the currently commercially available drugs such as for instance saquinavir, ritonavir, nelfinavir, indinavir and amprenavir. The viral strains R13025, R13027, R13028, R13029, R13034, R13080, T13127 and R13363 contained mutations as indicated below in Table 3.

[1] = Table 1, MT4 cells, five days, HIV-1 strain LAI
[2] = Table 2, MT4 cells, five days, HIV-1 strain LAI

## COC(=O)Nc1nc2ccc(S(=O)(=O)N(CC(C)C)CC(O)C(Cc3ccccc3)NC(=O)OC3COC4OCCC34)cc2[nH]1 (stereo not shown) [Compound 10]
HIV-1 strain LAI; [1]
  pIC50 (LAI): 8.0

## Cc1cccc(C)c1OCC(=O)N[C@@H](Cc1ccccc1)[C@H](O)CN(CC(C)C)S(=O)(=O)c1ccc2ncn(CC(C)C)c2c1 [Compound 45]
HIV-1 strain LAI; [1]
  pIC50 (LAI): 6.3
HIV-1 strain LAI
  WT (pIC50 against wild type HIV-LAI strain): 6.3
Mutant A
  FR value towards mutant A: 9.3
Mutant E
  FR towards mutant E: 7.4
mock-infected MT4 cells
  Tox (pCC50): <4

## Cc1cc(N)cc(C)c1OCC(=O)N[C@@H](Cc1ccccc1)[C@H](O)CN(CC(C)C)S(=O)(=O)c1ccc2c(c1)ncn2CCN(C)C [Compound 62]
HIV-1 strain LAI; [2]
  pIC50 (LAI): 5.7

## Cc1c(N)cccc1C(=O)N[C@@H](Cc1ccccc1)[C@H](O)CN(CC(C)C)S(=O)(=O)c1ccc2nc[nH]c2c1 [Compound 46]
HIV-1 strain LAI; [1]
  pIC50 (LAI): 6.4
HIV-1 strain LAI
  WT (pIC50 against wild type HIV-LAI strain): 6.4
mock-infected MT4 cells; pCC50 value as determined with mock transfected cells
  Tox (pCC50): <4

## CC(C)CN(CC(O)C(Cc1ccccc1)NC(=O)OC1COC2OCCC12)S(=O)(=O)c1ccc2ncn(Cc3cncn3C)c2c1 (stereo not shown) [Compound 51]
HIV-1 strain LAI; [1]
  pIC50 (LAI): 6.2
HIV-1 strain LAI
  WT (pIC50 against wild type HIV-LAI strain): 6.2
Mutant A
  FR value towards mutant A: 2.8
Mutant E
  FR towards mutant E: 0.89
Mutant H
  FR towards mutant H: 2.1

## CC(C)CN(C[C@@H](O)[C@H](Cc1ccccc1)NC(=O)O[C@H]1CCOC1)S(=O)(=O)c1ccc2nc(N)[nH]c2c1 [Compound 53]
HIV-1 strain LAI; [1]
  pIC50 (LAI): 6.0
HIV-1 strain LAI
  WT (pIC50 against wild type HIV-LAI strain): 6.0
mock-infected MT4 cells
  Tox (pCC50): 4.05

## CC(C)CN(CC(O)C(Cc1ccccc1)NC(=O)OC1COC2OCCC12)S(=O)(=O)c1ccc2c(c1)ncn2CCN(C)C (stereo not shown) [Compound 60]
HIV-1 strain LAI; [2]
  pIC50 (LAI): 6.5

## CC(C)CN(C[C@@H](O)[C@H](Cc1ccccc1)NC(=O)O[C@H]1CO[C@H]2OCC[C@H]21)S(=O)(=O)c1ccc2nc(NCCN3CCCC3)n(CCc3ccccc3)c2c1 [Compound 40, [(1S,2R)-2-hydroxy-3-[[[[1-(phenethyl)-2-[2-(pyrrolidin-1-yl)ethylamino]]benzimidazol-6-yl]sulfonyl](2-methylpropyl)amino]-1-(phenylmethyl)propyl]carbamic acid, [(3R,3aS,6aR)-hexahydrofuro[2,3-b]furan-3-yl]ester]
HIV-1 strain LAI; [1]
  pIC50 (LAI): 6.4
HIV-1 strain LAI
  WT (pIC50 against wild type HIV-LAI strain): 6.4
Mutant A
  FR value towards mutant A: 10
Mutant E
  FR towards mutant E: 4.0
Mutant H
  FR towards mutant H: 7.9

## CC(C)CN(C[C@@H](O)[C@H](Cc1ccccc1)NC(=O)OC(C)(C)C)S(=O)(=O)c1ccc2nc(N)n(Cc3ccccc3)c2c1 [Compound 39]
HIV-1 strain LAI; [1]
  pIC50 (LAI): 6.9
HIV-1 strain LAI
  WT (pIC50 against wild type HIV-LAI strain): 6.9
Mutant A
  FR value towards mutant A: 32
Mutant E
  FR towards mutant E: 3.5

## CC(C)CN(C[C@@H](O)[C@H](Cc1ccccc1)NC(=O)O[C@H]1CCOC1)S(=O)(=O)c1ccc2ncn(CC(C)C)c2c1 [Compound 14]
HIV-1 strain LAI; [1]
  pIC50 (LAI): 7.7

## CC(C)CN(C[C@@H](O)[C@H](Cc1ccccc1)NC(=O)OCc1cncs1)S(=O)(=O)c1ccc2ncn(Cc3ccccc3)c2c1 [Compound 30]
HIV-1 strain LAI; [1]
  pIC50 (LAI): 7.1
HIV-1 strain LAI
  WT (pIC50 against wild type HIV-LAI strain): 7.1
Mutant A
  FR value towards mutant A: 18
Mutant E
  FR towards mutant E: 13
Mutant H
  FR towards mutant H: 65

## CC(C)CN(C[C@@H](O)[C@H](Cc1ccccc1)NC(=O)O[C@H]1CO[C@H]2OCC[C@H]21)S(=O)(=O)c1ccc2ncn(CCN3CCCC3)c2c1 [Compound 20, [(1S,2R)-2-hydroxy-1-(phenyl-methyl)-3-[[[1-[2-(pyrrolidin-1-yl)ethyl]benzimidazol-6-yl]sulfonyl](2-methylpropyl)-amino]propyl]carbamic acid, [(3R,3aS,6aR)-hexahydrofuro[2,3-b]furan-3-yl]ester]
HIV-1 strain LAI; Human immunodeficiency virus 1, 120 h, Table 1, MT4 cells, five days, HIV-1 strain LAI, read-out: pIC50 (LAI) (converted)
  IC50: 39.8 nM

## CC(C)CN(CC(O)C(Cc1ccccc1)NC(=O)OC1COC2OCCC12)S(=O)(=O)c1ccc2ncn(Cc3ccncc3)c2c1 (stereo not shown) [Compound 28]
HIV-1 strain LAI; [1]
  pIC50 (LAI): 7.5
HIV-1 strain LAI
  WT (pIC50 against wild type HIV-LAI strain): 7.5
Mutant A
  FR value towards mutant A: 1.5
Mutant E
  FR towards mutant E: 1.3
Mutant H
  FR towards mutant H: 2.6

— US8143421B2, “Broadspectrum substituted benzimidazole sulfonamide HIV protease inhibitors” (priority 2002, dated 2012)
